Source: US10457707B2, “Substituted urea depsipeptide analogs as activators of the CLPP endopeptidase” (priority 2015, dated 2019)
Values after ≈ are worked out from the molar mass of the structure shown. *1 amine or outer side, *2 acyl side, *3 side chain or, on linkers, in order; H or OH if unused. Where a SMILES comes first, the peptide text is derived from it. Bridges are numbered along the chain shown (N, C = ends). [ ]: non-standard residue; d: D form. The star is where a group is joined. X15 = O=C([C@@H]1C[C@@H](OP(=O)(O)O)CN1[*:1])[*:2]; Phe(3,5-F2) = N[C@@H](Cc1cc(F)cc(F)c1)C(=O)O; Morpholine(3S-CO) = O=C(O)[C@@H]1COCCN1; Pro(4S-Me) = C[C@@H]1CN[C@H](C(=O)O)C1; Pro(4R-Me) = C[C@H]1CN[C@H](C(=O)O)C1; NH(3,4-Me2-phenyl) = Cc1ccc(N*)cc1C; NH(4-Me-phenyl) = Cc1ccc(N*)cc1; aThr = C[C@H](O)[C@H](N)C(=O)O; Pip = O=C(O)[C@@H]1CCCCN1; NMeA = CN[C@@H](C)C(=O)O; CO = O=C([*:1])[*:2]

Key:
[1] = system: Streptococcus pneumoniae, DAW27; assay: Minimal inhibitory concentration assay (microbroth dilution); format: cell-based; settings: DAW27, read-out: Minimal Inhibitory Concentrations S. pneumoniae DAW27
In short: (§1)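 Compound is serially diluted two-fold in the appropriate broth, and bacterial inoculum at about 10^5 cfu/mL is added so the highest final concentration is 200 μM. Plates stay overnight at 37 °C under aerobic conditions before growth is scored by eye.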

[2] = system: Staphylococcus aureus, NRS70; assay: as above; format: cell-based; settings: Staphylococcus aureus, NRS70, read-out: Minimal Inhibitory Concentrations S. aureus NRS70
In short: as §1

[3] = system: Enterococcus faecalis, ATCC 33186; assay: as above; format: cell-based; settings: Enterococcus faecalis, ATCC33186, read-out: Minimal Inhibitory Concentrations E. faecalis ATCC 33186
In short: as §1

[4] = system: Staphylococcus aureus, ATCC 29213; assay: as above; format: cell-based; settings: ATCC29213, read-out: Minimal Inhibitory Concentrations S. aureus ATCC 29213
In short: as §1

[5] = system: Bacillus subtilis, ATCC 23857; assay: as above; format: cell-based; settings: Bacillus subtilis, ATCC23857, read-out: Minimal Inhibitory Concentrations B. subtilis ATCC 23857
In short: as §1

E. coli K12ΔtolC = assay: as above; format: cell-based
[6] = system: Vero (kidney epithelial cells; ATCC CCL-81); assay: Cytotoxicity assay (CellTiter-Glo cell viability, 72 hours); format: cell-based; settings: Vero cells, 72 hours, growth inhibition; read-out: Cytotoxicity IC50
In short: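 Viability measured by CellTiter-Glo luminescence after 72-hour compound exposure (serial dilutions, DMSO control) of Vero monolayers seeded at 5000 cells/well in 10% FBS DMEM. IC50 values are the range of two biologically independent experiments, each run in duplicate.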

[7] = system: Streptococcus pyogenes, ATCC 700294; assay: Minimal inhibitory concentration assay (microbroth dilution); format: cell-based; settings: Streptococcus pyogenes, ATCC700294, read-out: Minimal Inhibitory Concentrations S. pyogenes ATCC 700294
In short: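 Plates with two-fold compound dilution series in broth were incubated overnight, aerobically, at 37° C, following CLSI microdilution guidance.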

physchem = settings: 22 °C, aqueous buffer, kinetic from dmso stock

| SMILES | MIC [1] [µM] | MIC [2] [µM] | MIC [3] [µM] | MIC [4] [µM] | MIC [5] [µM] | Minimal Inhibitory Concentrations E. coli K12ΔtolC (E. coli K12ΔtolC) [µM] | IC50 [6] [µM] | MIC [7] [µM] | solubility (physchem) [µM] |
| --- | --- | --- | --- | --- | --- | --- | --- | --- | --- |
| C[C@@H]1C[C@H]2C(=O)OC[C@H](NC(=O)[C@H](Cc3ccccc3)NC(=O)Nc3ccc(N(C)C)cc3)C(=O)N3CCC[C@H]3C(=O)N3CCCC[C@H]3C(=O)N[C@@H](C)C(=O)N2C1 [Compound 5, (S)—N-((2R,6S,8aS,14aS,20S,23aS)-2,6-dimethyl-5,8,14,19,23-pentaoxooctadecahydro-1H,5H,14H,19H-pyrido[2,1-i]dipyrrolo[2,1-c:2′,1′-l][1]oxa[4,7,10,13]tetraazacyclohexadecin-20-yl)-2-(3-(4-(dimethylamino)phenyl)ureido)-3-phenylpropanamide] | 0.39 (≈ 0.307 µg/mL) | 1.56 (≈ 1.23 µg/mL) | 0.78 (≈ 0.614 µg/mL) | 6.25 (≈ 4.92 µg/mL) | 0.78 (≈ 0.614 µg/mL) | 50 | 91.3 ± 12.7 | 0.78 (≈ 0.614 µg/mL) |  |
| Cc1ccc(NC(=O)N[C@@H](Cc2cc(F)cc(F)c2)C(=O)N[C@@H]2C(=O)N3C[C@H](OP(=O)(O)O)C[C@H]3C(=O)N(C)[C@@H](C)C(=O)N[C@@H](C)C(=O)N3C[C@@H](C)C[C@H]3C(=O)O[C@H]2C)cc1 [Compound 187, (2S,6S,9S,11aS,13R,17S,18S,20aS)-17-((S)-3-(3,5-difluorophenyl)-2-(3-(p-tolyl)ureido)propanamido)-2,6,9,10,18-pentamethyl-5,8,11,16,20-pentaoxohexadecahydro-1H,5H,16H-dipyrrolo[2,1-c:2′,1′-l][1]oxa[4,7,10,13]tetraazacyclohexadecin-13-yl dihydrogen phosphate] ({NH(4-Me-phenyl)-CO}-[Phe(3,5-F2)][aThr][X15][NMeA]A[Pro(4S-Me)]; ester 2-C) |  |  |  |  |  |  |  |  | 118 ± 1.4 |
| Cc1ccc(NC(=O)N[C@@H](Cc2cc(F)cc(F)c2)C(=O)N[C@@H]2C(=O)N3C[C@H](OP(=O)(O)O)C[C@H]3C(=O)N3CCOC[C@H]3C(=O)N[C@@H](C)C(=O)N3C[C@H](C)C[C@H]3C(=O)O[C@H]2C)cc1C [Compound 189, (6aS,8R,12S,13S,15aS,17R,21S,23aS)-12-((S)-3-(3,5-difluorophenyl)-2-(3-(3,4-dimethylphenyl)ureido)propanamido)-13,17,21-trimethyl-6,11,15,20,23-pentaoxooctadecahydro-6H,11H,15H-[1,4]oxazino[3,4-i]dipyrrolo[2,1-c:2′,1′-L][1]oxa[4,7,10,13]tetraazacyclohexadecin-8-yl dihydrogen phosphate] ({NH(3,4-Me2-phenyl)-CO}-[Phe(3,5-F2)][aThr][X15][Morpholine(3S-CO)]A[Pro(4R-Me)]; ester 2-C) |  |  |  |  |  |  |  |  | 117 ± 3.2 |
| C[C@@H]1C[C@H]2C(=O)OC[C@H](NC(=O)[C@H](Cc3ccccc3)NC(=O)Nc3cccc(Cl)c3)C(=O)N3CCC[C@H]3C(=O)N3CCCC[C@H]3C(=O)N[C@@H](C)C(=O)N2C1 [Compound 9, (S)-2-(3-(3-chlorophenyl)ureido)-N-((2R,6S,8aS,14aS,20S,23aS)-2,6-dimethyl-5,8,14,19,23-pentaoxooctadecahydro-1H,5H,14H,19H-pyrido[2,1-i]dipyrrolo[2,1-c:2′,1′-l][1]oxa[4,7,10,13]tetraazacyclohexadecin-20-yl)-3-phenylpropanamide] | 0.78 (≈ 0.607 µg/mL) | 1.56 (≈ 1.21 µg/mL) | 1.56 (≈ 1.21 µg/mL) | 3.13 (≈ 2.44 µg/mL) | 1.56 (≈ 1.21 µg/mL) | 25 | 89 ± 5 | 1.56 (≈ 1.21 µg/mL) |  |
| C[C@@H]1C[C@H]2C(=O)OC[C@H](NC(=O)[C@H](Cc3ccccc3)NC(=O)Nc3ccccc3)C(=O)N3CCC[C@H]3C(=O)N3CCCC[C@H]3C(=O)N[C@@H](C)C(=O)N2C1 [Compound 1, (S)—N-((2R,6S,8aS,14aS,20S,23aS)-2,6-dimethyl-5,8,14,19,23-pentaoxooctadecahydro-1H,5H,14H,19H-pyrido[2,1-i]dipyrrolo[2,1-c:2′,1′-l][1]oxa[4,7,10,13]tetraazacyclohexadecin-20-yl)-3-phenyl-2-(3-phenylureido)propanamide] | 0.78 (≈ 0.58 µg/mL) | 6.25 (≈ 4.65 µg/mL) | 3.13 (≈ 2.33 µg/mL) | 6.25 (≈ 4.65 µg/mL) | 1.56 (≈ 1.16 µg/mL) | 200 | > 100 | 1.56 (≈ 1.16 µg/mL) |  |
| Cc1ccc(NC(=O)N[C@@H](Cc2cc(F)cc(F)c2)C(=O)N[C@@H]2C(=O)N3C[C@H](OP(=O)(O)O)C[C@H]3C(=O)N3CCCC[C@H]3C(=O)N[C@@H](C)C(=O)N3C[C@H](C)C[C@H]3C(=O)O[C@H]2C)cc1 [Compound 190, (2R,6S,8aS,14aS,16R,20S,21S,23aS)-20-((S)-3-(3,5-difluorophenyl)-2-(3-(p-tolyl)ureido)propanamido)-2,6,21-trimethyl-5,8,14,19,23-pentaoxooctadecahydro-1H,5H,14H,19H-pyrido[2,1-i]dipyrrolo[2,1-c:2′,1′-l][1]oxa[4,7,10,13]tetraazacyclohexadecin-16-yl dihydrogen phosphate] ({NH(4-Me-phenyl)-CO}-[Phe(3,5-F2)][aThr][X15][Pip]A[Pro(4R-Me)]; ester 2-C) |  |  |  |  |  |  |  |  | 113 ± 3.9 |
| C[C@@H]1C[C@H]2C(=O)OC[C@H](NC(=O)[C@H](Cc3ccccc3)NC(=O)Nc3ccc(Cl)cc3)C(=O)N3CCC[C@H]3C(=O)N3CCCC[C@H]3C(=O)N[C@@H](C)C(=O)N2C1 [Compound 3, (S)-2-(3-(4-chlorophenyl)ureido)-N-((2R,6S,8aS,14aS,20S,23aS)-2,6-dimethyl-5,8,14,19,23-pentaoxooctadecahydro-1H,5H,14H,19H-pyrido[2,1-i]dipyrrolo[2,1-c:2′,1′-l][1]oxa[4,7,10,13]tetraazacyclohexadecin-20-yl)-3-phenylpropanamide] | 0.2 (≈ 0.156 µg/mL) | 0.78 (≈ 0.607 µg/mL) | 0.2 (≈ 0.156 µg/mL) | 1.56 (≈ 1.21 µg/mL) | 0.78 (≈ 0.607 µg/mL) | 25 | 63 ± 5.8 | 0.39 (≈ 0.304 µg/mL) |  |
| COc1ccc(NC(=O)N[C@@H](Cc2ccccc2)C(=O)N[C@H]2COC(=O)[C@@H]3C[C@@H](C)CN3C(=O)[C@H](C)NC(=O)[C@@H]3CCCCN3C(=O)[C@@H]3CCCN3C2=O)cc1 [Compound 6, (S)—N-((2R,6S,8aS,14aS,20S,23aS)-2,6-dimethyl-5,8,14,19,23-pentaoxooctadecahydro-1H,5H,14H,19H-pyrido[2,1-i]dipyrrolo[2,1-c:2′,1′-l][1]oxa[4,7,10,13]tetraazacyclohexadecin-20-yl)-2-(3-(4-Methoxyphenyl)ureido)-3-phenylpropanamide] | 0.2 (≈ 0.155 µg/mL) | 3.13 (≈ 2.42 µg/mL) | 0.78 (≈ 0.604 µg/mL) | 3.13 (≈ 2.42 µg/mL) | 1.56 (≈ 1.21 µg/mL) | 50 | > 100 | 0.39 (≈ 0.302 µg/mL) |  |
